Our source for the viability values is PMC11995724, “Antibiotic target discovery by integrated phenotypic and activity-based profiling of electrophilic fragments” (Cell chemical biology, 2025).

Broadly, the viability is a read-out of living cells in per cent, often relative to untreated cells.

This series is described as follows: in vitro. The conditions noted are these: human, hek293t cells.
`Cc1cc(C=C(C#N)C(=O)Nc2ccccn2)c(C)n1CC(C)C` [9-J21, 2-cyano-3-[2,5-dimethyl-1-(2-methylpropyl)-1H-pyrrol-3-yl]-N-(pyridin-2-yl)prop-2-enamide]: the viability at 48 h, 25 µM amounted to 87.2%.

With `N#CC(=Cc1ccc(F)c(F)c1)C(=O)NC1CCCCC1` [9-J22, 2-cyano-N-cyclohexyl-3-(3,4-difluorophenyl)prop-2-enamide], the viability at 48 h, 25 µM is 101%.

Regarding `CC(NC(=O)C(C#N)=Cc1ccco1)c1cccnc1` (stereo not drawn) [9-K03, 2-cyano-3-(furan-2-yl)-N-[1-(pyridin-3-yl)ethyl]prop-2-enamide], the viability at 48 h, 25 µM worked out at 129%.

Take `N#CC(=Cc1ccc(OC(F)F)cc1)C(=O)Nc1cccnc1` [9-K04, 2-cyano-3-[4-(difluoromethoxy)phenyl]-N-(pyridin-3-yl)prop-2-enamide]: the viability at 48 h, 25 µM was 115%.

Take `CCc1nsc(N2CCN(C(=O)C(C#N)=Cc3ccco3)CC2)n1` [9-K05, 2-[4-(3-ethyl-1,2,4-thiadiazol-5-yl)piperazine-1-carbonyl]-3-(furan-2-yl)prop-2-enenitrile]: the viability at 48 h, 25 µM came out at 121%.

As to `N#CC(=Cc1c(Cl)cccc1Cl)C(=O)NCc1ccco1` [9-K06, 2-cyano-3-(2,6-dichlorophenyl)-N-[(furan-2-yl)methyl]prop-2-enamide], the viability at 48 h, 25 µM amounted to 29.2%.

Regarding `CC(C)NC(=O)C(C#N)=Cc1ccc(Cl)cc1Cl` [9-K07, 2-cyano-3-(2,4-dichlorophenyl)-N-(propan-2-yl)prop-2-enamide], the viability at 48 h, 25 µM worked out at 49.5%.

For the molecule `Cc1ccc(C=C(C#N)C(=O)Nc2ccccc2C(=O)O)s1` [9-K08, 2-[2-cyano-3-(5-methylthiophen-2-yl)prop-2-enamido]benzoic acid], the viability at 48 h, 25 µM stood at 104%.

For the molecule `N#CC(=Cc1cccc(F)c1)C(=O)NCc1ccccc1` [9-K09, N-benzyl-2-cyano-3-(3-fluorophenyl)prop-2-enamide], the viability at 48 h, 25 µM worked out at 109%.

Consider `N#CC(=Cc1ccc2ccccc2c1)C(=O)NC(N)=O` [9-K10, {2-cyano-2-[(naphthalen-2-yl)methylidene]acetyl}urea], for which the viability at 48 h, 25 µM came out at 116%.

For the molecule `COc1cc(C=C(C#N)C(=O)NC(C)C)cc(Cl)c1O` [9-K11, 3-(3-chloro-4-hydroxy-5-methoxyphenyl)-2-cyano-N-(propan-2-yl)prop-2-enamide], the viability at 48 h, 25 µM was found to be 115%.

Take `N#CC(=Cc1ccc(N2CCCC2)cc1)C(=O)N1CCC(C(N)=O)CC1` [9-K12, 1-(2-cyano-2-{[4-(pyrrolidin-1-yl)phenyl]methylidene}acetyl)piperidine-4-carboxamide]: the viability at 48 h, 25 µM came out at 108%.

`COc1cc(C=C(C#N)C(N)=O)cc(OC)c1OC` [9-K13, 2-cyano-3-(3,4,5-trimethoxyphenyl)prop-2-enamide]: the viability at 48 h, 25 µM was 129%.

For the molecule `N#CC(=Cc1cccnc1)C(=O)NCCc1ccccc1` [9-K14, 2-cyano-N-(2-phenylethyl)-3-(pyridin-3-yl)prop-2-enamide], the viability at 48 h, 25 µM was found to be 89.3%.

As to `Cc1ccc(C=C(C#N)C(=O)NC2CC2)s1` [9-K15, 2-cyano-N-cyclopropyl-3-(5-methylthiophen-2-yl)prop-2-enamide], the viability at 48 h, 25 µM came out at 126%.

Regarding `N#CC(=Cc1ccc(-c2ccc(Cl)cc2)o1)C(=O)NC1CC1` [9-K16, 3-[5-(4-chlorophenyl)furan-2-yl]-2-cyano-N-cyclopropylprop-2-enamide], the viability at 48 h, 25 µM came to 91%.

`Cc1ccc(NC(=O)C(C#N)=Cc2ccccc2OC(F)F)c(C)c1` [9-K17, 2-cyano-3-[2-(difluoromethoxy)phenyl]-N-(2,4-dimethylphenyl)prop-2-enamide]: the viability at 48 h, 25 µM was found to be 94.9%.

Regarding `CC1=C(C#N)C(=O)N(C)C(=O)C1=Cc1ccc(-c2ccccc2Cl)o1` [9-K18, 5-{[5-(2-chlorophenyl)furan-2-yl]methylidene}-1,4-dimethyl-2,6-dioxo-1,2,5,6-tetrahydropyridine-3-carbonitrile], the viability at 48 h, 25 µM worked out at 126%.

With `N#CC(=Cc1ccccc1OC(F)F)C(=O)Nc1nccs1` [9-K19, 2-cyano-3-[2-(difluoromethoxy)phenyl]-N-(1,3-thiazol-2-yl)prop-2-enamide], the viability at 48 h, 25 µM came out at 119%.

In the case of `N#CC(=Cc1ccc2c(c1)OCCO2)C(=O)Nc1ccc(F)cc1` [9-K20, 2-cyano-3-(2,3-dihydro-1,4-benzodioxin-6-yl)-N-(4-fluorophenyl)prop-2-enamide], the viability at 48 h, 25 µM came to 114%.

For the molecule `N#CC(=Cc1ccc([N+](=O)[O-])cc1)C(=O)Nc1cccc2ncccc12` [9-K21, 2-cyano-3-(4-nitrophenyl)-N-(quinolin-5-yl)prop-2-enamide], the viability at 48 h, 25 µM stood at 114%.

`CCOc1cc(C=C(C#N)C(=O)Nc2nccs2)cc(Cl)c1O` [9-K22, 3-(3-chloro-5-ethoxy-4-hydroxyphenyl)-2-cyano-N-(1,3-thiazol-2-yl)prop-2-enamide]: the viability at 48 h, 25 µM was 110%.

Take `COc1ccc(NC(=O)C(C#N)=Cc2cnc3c(C)cccn23)cc1` [9-L03, 2-cyano-N-(4-methoxyphenyl)-3-{8-methylimidazo[1,2-a]pyridin-3-yl}prop-2-enamide]: the viability at 48 h, 25 µM was found to be 111%.

`CCCCNC(=O)C(C#N)=Cc1c[nH]nn1` [9-L04, N-butyl-2-cyano-3-(1H-1,2,3-triazol-4-yl)prop-2-enamide]: the viability at 48 h, 25 µM came out at 116%.

Regarding `CSc1ccc(C=C(C#N)C(=O)Nc2ccc3c(c2)OCCO3)cc1` [9-L05, 2-cyano-N-(2,3-dihydro-1,4-benzodioxin-6-yl)-3-[4-(methylsulfanyl)phenyl]prop-2-enamide], the viability at 48 h, 25 µM was found to be 114%.

As for `C=CCNC(=O)C(C#N)=Cc1ccc2c(c1)OCCO2` [9-L06, 2-cyano-3-(2,3-dihydro-1,4-benzodioxin-6-yl)-N-(prop-2-en-1-yl)prop-2-enamide], the viability at 48 h, 25 µM amounted to 86.7%.

On to `C=CCNC(=O)C(C#N)=Cc1c(C)nn(-c2ccc(F)cc2)c1Cl` [9-L07, 3-[5-chloro-1-(4-fluorophenyl)-3-methyl-1H-pyrazol-4-yl]-2-cyano-N-(prop-2-en-1-yl)prop-2-enamide], for which the viability at 48 h, 25 µM came out at 91.8%.

For `N#CC(=Cc1cccs1)C(=O)NCc1ccco1` [9-L08, 2-cyano-N-[(furan-2-yl)methyl]-3-(thiophen-2-yl)prop-2-enamide], the viability at 48 h, 25 µM amounted to 110%.

Regarding `N#CC(=Cc1ccco1)C(=O)NC1CCN(c2ccc(F)cc2F)C1` (stereo not drawn) [9-L09, 2-cyano-N-[1-(2,4-difluorophenyl)pyrrolidin-3-yl]-3-(furan-2-yl)prop-2-enamide], the viability at 48 h, 25 µM is 111%.

On to `C=CCNC(=O)C(C#N)=Cc1cccc2ccccc12` [9-L10, 2-cyano-3-(naphthalen-1-yl)-N-(prop-2-en-1-yl)prop-2-enamide], for which the viability at 48 h, 25 µM was 96.5%.

Turning to `N#CC(=Cc1cccs1)C(=O)Nc1ccccc1Cl` [9-L11, N-(2-chlorophenyl)-2-cyano-3-(thiophen-2-yl)prop-2-enamide], the viability at 48 h, 25 µM was 112%.

As to `N#CC(=Cc1ccc(OC(F)F)c(Cl)c1)C(N)=O` [9-L12, 3-[3-chloro-4-(difluoromethoxy)phenyl]-2-cyanoprop-2-enamide], the viability at 48 h, 25 µM is 106%.

In the case of `N#CC(=Cc1cccc(Cl)c1)C(=O)NCc1ccccc1` [9-L13, N-benzyl-3-(3-chlorophenyl)-2-cyanoprop-2-enamide], the viability at 48 h, 25 µM is 39.5%.
